Measured values from patent US20140161720A1, “TREATMENT OF ANGIOGENIC- OR VASCULAR-ASSOCIATED DISEASES” (THE GENERAL HOSPITAL CORPORATION, priority 2011, published 2014).
“Also recorded” adds a separate entry of the source.

What was measured:
[1] = tested on: Tg(fli1:EGFP)^y1 zebrafish embryos; test: Vascular development in zebrafish embryos; format: in vivo
Protocol: Zebrafish were raised in accordance with the established protocols (19-20). The age of embryos is indicated by the hours after fertilization and days after fertilization for all experimental data shown herein. For the screening study, zebrafish embryos were incubated with the selected compounds at a concentration of 5-10 μM. Treated embryos were then examined under a 100× PlanNeofluor objective mounted on a Nikon TE-200 epifluorescence microscope. Images of embryos bearing GFP-positive cells were captured with a Zeiss stereomicroscope.
To elucidate the potential impact of DAL on the process of vascular network formation, its effects in zebrafish embryos at different stages of development were assessed. To visualize vessel defects, transgenic fish expressing EGFP in endothelial cells (Tg(fli1:EGFP)^y1) were used (19-20). This model expresses EGFP in blood vessel ECs throughout normal development and during fin regeneration (21). The effects of DAL on normal vascular development in zebrafish embryos were first characterized. In control embryos, developing vessels migrated from the lateral plate mesoderm to the midline, where they coalesced into a vascular cord. These endothelial clusters subsequently established the pattern of the dorsal aorta and posterior cardinal vein. Intersomitic vessels sprouted at designated branch sites in control embryos after dorsal aorta formation.

[2] = Pharmacokinetics after intraperitoneal administration; format: in vivo; conditions: after i.p. dosing, 100% DMSO formulation, male CD-1 mice
Text: FIG. 8 is a graph showing pharmacokinetic parameters after intraperitoneal administration of DAL.

[3] = Toxicity of intraperitoneal DAL in SCID mice; format: in vivo; conditions: intraperitoneal doses of up to 100 mg/kg
Protocol: A cell-based readout system was used for compound selection. For the cell-based screening, an optimal cell density of 10,000 breast cancer MDA-MB-231 cells/well was selected to produce the most prominent signal. The plated cells were incubated with each library compound, washed with PBS, and the Cell Titer-Glo (Promega) reagent was used to detect the number of cells remaining attached in each well. This ATP-based detection has a linear relationship between the luminescent signal and the number of cells per well. Of the 50,000 compounds screened, 86 library compounds (0.172% of screened compounds) were selected at 1.67 μM concentration for the second screening step. […] As a further test of toxicity, DAL was injected intraperitoneally at 100 mg/kg in SCID mice and signs of toxicity including cachexia, ruffled fur, diarrhea, anorexia, skin ulceration, and toxic death were monitored.
A screening strategy was developed to identify potential agents that target adhesion of endothelial cells or cancer cells to their substrate. […] The initial screening step quantified the number of cells remaining attached to their wells following incubation with each compound and subsequent washing steps. […] The agents that affect cell adhesion can be monitored through remodeling of actin filaments. […] Changes in actin assembly and cell shape after treatment with 12 compounds were determined. […]

[4] = tested on: HUVEC; test: In vitro vascular network formation on matrigel; format: cell-based, human
Protocol: For F-actin visualization, HUVECs were plated and treated with saline or DAL (10 μM) for three hours. After fixing and permeabilizing these cultured cells, the cells were subsequently stained with phalloidin. […] Existing cordlike structures, when exposed to 10 μM of DAL for 3 hours, were also disrupted. […] HUVEC monolayers were disrupted mechanically with a pipette tip and the migration of cells to “heal” the wound was monitored using microscopy.
To assess whether DAL affects EC functions, in vitro models of vascular network formation from HUVECs were used. After overnight cultivation in matrigel, HUVECs spontaneously assemble into cord-like structures that resemble vascular networks. […] Since DAL affects actin cytoskeleton assembly, the effect of DAL on cell motility was next assessed. A scratch wound assay was utilized to study HUVEC motility based on the healing rate of a wounded monolayer.

[5] = molecular target: recombinant purified IDO (Homo sapiens, UniProt P14902); test: Enzymatic assay with recombinant purified IDO; format: biochemical
recombinant purified IDO, sequence (P14902 whole entry): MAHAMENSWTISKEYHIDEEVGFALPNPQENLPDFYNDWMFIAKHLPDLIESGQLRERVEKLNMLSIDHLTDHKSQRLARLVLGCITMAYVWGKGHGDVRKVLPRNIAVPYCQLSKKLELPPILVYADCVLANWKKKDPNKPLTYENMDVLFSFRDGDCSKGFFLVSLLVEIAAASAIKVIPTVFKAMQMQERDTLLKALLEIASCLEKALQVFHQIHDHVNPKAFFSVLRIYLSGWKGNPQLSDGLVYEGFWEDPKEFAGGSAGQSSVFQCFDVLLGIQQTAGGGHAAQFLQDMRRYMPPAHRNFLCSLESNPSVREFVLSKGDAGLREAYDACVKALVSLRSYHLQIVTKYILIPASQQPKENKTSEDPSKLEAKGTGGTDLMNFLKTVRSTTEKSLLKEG
Protocol: To determine whether DAL is an immuno-modulator, the effect of DAL on IDO activity was measured. To monitor IDO enzymatic activity, HEK 293 cells were engineered to express IDO and treated with DAL in a 10-dose IC50 mode with threefold serial dilutions. The IDO activity was analyzed by the presence of kynurenine (the first stable catabolite downstream of IDO) with a spectrophotometric assay (Katz et al., 2008; Littlejohn et al., 2000). […] Because DAL inhibits recombinant purified IDO in the enzymatic assay, it is likely that DAL physically interacts with IDO1, forming a complex that represses IDO1 activity. To elucidate a possible structural basis for this inhibition, comparative modeling and molecular docking were used (FIGS. 9A-9D). […] These residues are disordered in all existing IDO structures (Thackray et al., 2008); however, in the tryptophan-bound bacterial TDO structure, the corresponding loop is well-ordered and forms a “lid” on the binding pocket. Similar to human IDO1, bacterial TDO is a heme enzyme catalyzing the conversion of tryptophan into N-formyl-kynurenine. The binding site residues are strongly conserved between the two enzymes: in particular, the lid sequences share the common motif [K/R]GTGG[T/S]. It was therefore assessed that if lid closure may be a critical step for the efficient reaction catalysis by IDO. […]

## CC1(C)C=CC2=C(O1)C(=O)c1ccccc1C2=O [DAL, dehydro-alpha-lapachone]
[1]; zebrafish embryos
  complexity of the arterial network: profound reduction
[1]; zebrafish embryos 48 hours after fertilization, DAL 5 μM
  vessel branch formation / sprouting of intersomitic vessels: failed to occur; also recorded: failed to form vessel branches
[2]
  half-life in plasma: 1.7 h
[3]
  signs of toxicity (cachexia, ruffled fur, diarrhea, anorexia, skin ulceration, toxic death): low toxicity; also recorded: no signs of toxicity
[4]; 10 μM for 3 hours
  effect on existing cordlike networks: complete reorganization of existing networks; also recorded: disrupted
[4]; after 24 hours / overnight cultivation
  HUVEC network formation on matrigel: blocks HUVEC network formation; also recorded: disjoined networks
[5]
  inhibition of recombinant purified IDO: inhibits
